Measurements published in paper PMC5824344 (ACS Chemical Biology, 2017).
“Also recorded” adds a separate entry of the source.

Test system: HCV (JFH-1) in Huh7.5 cells
Experiment: HCV antiviral assay in Huh7.5 cells (infectious titer by TCID50 assay)
Format: cell-based, hepatitis C virus
Settings: MOI 2, 96 h, titration of 4 or 50 µm of 3
Experimental: Supplemental Figure 3: Antiviral activity of 4 in human hepatoma Huh7.5 cell line.
(A) Huh7.5 cells were infected with DENV (serotype 2, strain 16681, multiplicity of infection = 0.1) and treated with a titration of ToP-DNJ 4 or 50 µm of tocopherol 3 for 48 h. Infectious virus titer was measured by plaque assay on LLC-MK2 cells. Counts were normalized to 100% for untreated samples.
DENV eﬀect at the concentrations tested. (B) Huh7.5 cells were infected with HCV (JFH-1, multiplicity of infection = 2) and treated with a titration of ToP-DNJ 4 or 50 µm tocopherol 3 for 96 h. Infectious virus titer was measured by TCID50 assay on […]
tested. In both panels, each data point represent the mean of triplicates, with error bars showing standard error of the mean (GraphPad Prism). […]
Huh7.5 cells were seeded in a 96-well plate at a density of 5× 10^3 cells/well in 100 µL growth media. […] The supernatant was harvested, and infectious viral titre assessed immediately in the TCID50 assay.
Huh7.5 cells were seeded in a 96-well plate at a density of 2× 10^4 cells/well in 100 µL of growth media and incubated for 18 h. The supernatants to be evaluated were diluted 1:10 in growth media, and 7 serial half-log10 dilutions were subsequently prepared in the same media. […]
each well was scored as either positive (≥ 5 stained cells) or negative. TCID50 values were calculated according to the method of Reed and Muench.8 […]

Cc1c(C)c2c(c(C)c1OCCCCCN1CC(O)C(O)C(O)C1CO)CCC(C)(CCCC(C)CCCC(C)CCCC(C)C)O2 (stereo not shown) [Compound 4, 5′-tocopheroxypentyl-DNJ]
anti-HCV effect (infectious virus titer): neither an anti-DENV nor anti-HCV effect was observed; also recorded: Neither 4 nor 3 showed an anti-HCV eﬀect
